Experimental data taken from patent US6875760B2 (Novo Nordisk A/S, priority 1999, dated 2005).

The compounds below were run against T1, human glucagon receptor (Homo sapiens, UniProt P47871) (assay: Glucagon Binding Assay (III)). Details: BHK cell membranes, WGA SPA beads, 125I-glucagon; read-out: Glu Bd Assay (III) IC50.
T1 construct: expressed in transfected cells; host or cells: BHK (baby hamster kidney) cells
Procedure, shortened: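 Non-specific binding was set with 500 nM glucagon in this SPA-type binding assay using WGA beads. The receptor source was a membrane preparation, kept on ice or at 4 °C, from BHK cells transfected with the human receptor. Scintillation counts were taken after 4 hours of shaking and 8–48 hours of settling.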

T1 sequence (P47871 26-477): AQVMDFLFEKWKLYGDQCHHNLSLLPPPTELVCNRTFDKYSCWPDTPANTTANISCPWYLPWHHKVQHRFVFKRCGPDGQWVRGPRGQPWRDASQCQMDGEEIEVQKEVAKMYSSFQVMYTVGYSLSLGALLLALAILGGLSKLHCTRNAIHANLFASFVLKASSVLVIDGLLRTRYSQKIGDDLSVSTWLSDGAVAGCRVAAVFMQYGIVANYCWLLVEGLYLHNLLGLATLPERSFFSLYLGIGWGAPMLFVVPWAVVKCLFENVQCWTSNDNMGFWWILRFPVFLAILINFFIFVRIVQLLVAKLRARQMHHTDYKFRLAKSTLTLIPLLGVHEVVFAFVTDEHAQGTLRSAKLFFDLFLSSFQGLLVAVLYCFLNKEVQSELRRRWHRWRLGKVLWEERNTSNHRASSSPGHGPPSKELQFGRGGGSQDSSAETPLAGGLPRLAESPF

Going from `O=C(O)CCNC(=O)c1ccc(CN(C(=O)c2ccc3c(c2)-c2ccccc2C3=O)c2ccc(C3CCCCC3)cc2)cc1` [Example 522, 3-(4-{[(4-Cyclohexylphenyl)-(9-oxo-9H-fluorene-3-carbonyl)amino]methyl}benzoylamino)propionic acid] to `O=C(O)CCNC(=O)c1ccc(CN(C(=O)c2ccc(Cc3ccccc3)cc2)c2ccc(C3CCCCC3)cc2)cc1` [Example 521, 3-(4-{[(4-Benzylbenzoyl)-(4-cyclohexylphenyl)amino]methyl}benzoylamino)propionic acid], the IC50 rises from 896 nM to 3420 nM (3.8-fold).

Compared with `O=C(Nc1nn[nH]n1)c1ccc(CN(C(=O)Nc2ccc(Cl)c(C(F)(F)F)c2)c2ccc(OC(F)(F)F)cc2)cc1` [Example 284, 4-[3-(4-Chloro-3-trifluoromethylphenyl)-1-(4-trifluoromethoxyphenyl)ureidomethyl]-N-(2H-tetrazol-5-yl)benzamide], `O=C(Nc1nn[nH]n1)c1ccc(CN(C(=O)Nc2ccc(OC(F)(F)F)cc2)c2ccc(N3CCCCC3)cc2)cc1` [Example 318, 4-[1-(4-Piperidin-1-ylphenyl)-3-(4-trifluoromethoxyphenyl)ureidomethyl]-N-(2H-tetrazol-5-yl)benzamide] is 4.6-fold higher in IC50: 54 nM for the first, 247 nM for the second.

First: O=C(Nc1nn[nH]n1)c1ccc(CN(C(=O)Nc2ccc(F)c(C(F)(F)F)c2)c2ccc(C3CCCCC3)cc2)cc1 [Example 600, 4-[1-(4-Cyclohexylphenyl)-3-(4-fluoro-3-trifluoromethylihenyl)ureidomethyl]-N-(2H-tetrazol-5-yl)benzamide]
Second: O=C(Nc1nn[nH]n1)c1ccc(CN(C(=O)Nc2ccc(Cl)c(Cl)c2)c2ccc(C3CCCCC3)cc2)cc1 [Example 346, 4-[1-(4-Cyclohexylphenyl)-3-(3,4-dichlorophenyl)ureidomethyl]-N-(2H-tetrazol-5-yl)benzamide]
The IC50 of the first is 2.8-fold lower: 9 nM for the first, 25 nM for the second. The first is the more potent here.

Compared with `CC(C)(C)C1CCC(N(Cc2ccc(C(=O)Nc3nn[nH]n3)cc2)C(=O)Oc2ccc(S(C)(=O)=O)cc2)CC1` (centres unmarked) [Example 623], `CC(C)(C)C1CCC(N(Cc2ccc(C(=O)Nc3nn[nH]n3)cc2)C(=O)c2cc3ccccc3o2)CC1` (centres unmarked) [Example 475, Benzofuran-2-carboxylic acid (4-tert-butylcyclohexyl)-[4-(2H-tetrazol-5-ylcarbamoyl)benzyl]amide] is 3-fold lower in IC50: 2700 nM for the first, 886 nM for the second. The second is the more potent here.

Going from `O=C(O)CCNC(=O)c1ccc(CN(NC(=O)c2ccc(OC(F)(F)F)cc2)C2CCC(c3ccccc3)CC2)cc1` (centres unmarked) [Example 426, 3-{4-[N-(4-Phenylcyclohexyl)-N′-(4-trifluoromethoxybenzoyl)hydrazinomethyl]benzoylamino}propionic acid] to `O=C(O)CCNC(=O)c1ccc(CN(NC(=O)c2ccc(OC(F)(F)F)cc2)C2C[C@@H]3C[C@H]2C2CCCC23)cc1` (some centres unmarked) [Example 425, 3-{4-[N-(Octahydro-4,7-methanoinden-5-yl)-N′-(4-trifluoromethoxybenzoyl)hydrazinomethyl]benzoylamino}propionic acid], the IC50 falls from 338 nM to 220 nM (1.5-fold). The second is the more potent here.

`CC(C)(C)[C@H]1CC[C@H](N(Cc2ccc(C(=O)NCCC(=O)O)cc2)C(=O)Nc2ccc(OC(F)(F)F)c(C#N)c2)CC1` [Example 251, 3-{4-[1-(trans-4-tert-Butylcyclohexyl)-3-(3-cyano-4-trifluoromethoxyphenyl)ureidomethyl]benzoylamino}propionic acid] and `CC(C)c1ccc(NC(=O)N(Cc2ccc(C(=O)NCCC(=O)O)cc2)C2CCC(C(C)(C)C)CC2)cc1` (centres unmarked) [Example 56, 3-{4-[1-(4-tert-Butylcyclohexyl)-3-(4-isopropylphenyl)ureidomethyl]benzoylamino}propionic acid] are within 1.5-fold of each other in IC50: 56 nM for the first, 59 nM for the second.

`CN(c1ccccc1)S(=O)(=O)c1cccc(NC(=O)N(Cc2ccc(C(=O)NCCC(=O)O)cc2)c2ccc(C3CCCCC3)cc2)c1` [Example 322, 3-(4-{1-(4-cyclohexylphenyl)-3-[3-(methylphenylsulfamoyl)phenyl]ureidomethyl}benzoylamino)propionic acid] and `CS(=O)(=O)c1cccc(NC(=O)N(Cc2ccc(C(=O)Nc3nn[nH]n3)cc2)c2ccc(C3CCCCC3)cc2)c1` [Example 444, 4-[1-(4-Cyclohexylphenyl)-3-(3-methylsulfonylphenyl)ureidomethyl]-N-(2H-tetrazol-5-yl)benzamide] are within 1.5-fold of each other in IC50: 41 nM for the first, 42 nM for the second.

Compared with `O=C(O)CCNC(=O)c1ccc(CN(C(=O)Oc2cccc(OC(F)(F)F)c2)c2ccc(C3CCCCC3)cc2)cc1` [Example 421, 3-(4-{[(4-Cyclohexylphenyl)-(3-trifluoromethoxyphenoxycarbonyl)amino]methyl}benzoylamino)propionic acid], `O=C(O)CCNC(=O)c1ccc(CN(C(=O)c2cc(-c3ccc(Cl)cc3)cs2)c2ccc(C3CCCCC3)cc2)cc1` [Example 560, 3-(4-{[[4-(4-Chlorophenyl)thiophene-2-carbonyl]-(4-cyclohexylphenyl)amino]methyl}benzoylamino)propionic acid] is 2.9-fold higher in IC50: 528 nM for the first, 1550 nM for the second. The first is the more potent here.

`CCCCC(CC)CN(Cc1ccc(C(=O)NCCC(=O)O)cc1)C(=O)Nc1cccc(C(F)(F)F)c1` (centres unmarked) [Example 21, 3-{4-[1-(2-Ethylhexyl)-3-(3-trifluoromethylphenyl)ureidomethyl]benzoylamino}propionic acid] and `O=C(O)CCNC(=O)c1ccc(CN(C(=O)Nc2ccc(OC(F)(F)F)cc2)c2ccc(Br)cc2)cc1` [Example 430, 3-{4-[1-(4-Bromophenyl)-3-(4-trifluoromethoxyphenyl)ureidomethyl]benzoylamino}propionic acid] are within 1.5-fold of each other in IC50: 1500 nM for the first, 1680 nM for the second.

First: CC(C)(C)C1CCC(N(Cc2ccc(C(=O)NCCC(=O)O)cc2)C(=O)NCCc2ccccc2)CC1 (centres unmarked) [Example 27, 3-{4-[1-(4-tert-Butylcyclohexyl)-3-phenethylureidomethyl]benzoylamino}propionic acid]
Second: CC(C)(C)C1CCC(N(Cc2ccc(C(=O)NCCC(=O)O)cc2)C(=O)Nc2ccc(Oc3ccccc3)nc2)CC1 (centres unmarked) [Example 246, 3-{4-[1-(4-tert-Butylcyclohexyl)-3-(6-phenoxypyridin-3-yl)ureidomethyl]benzoylamino}propionic acid]
The IC50 of the first is 14-fold higher: 2000 nM for the first, 146 nM for the second.

Compared with `CS(=O)(=O)c1cc(NC(=O)N(Cc2ccc(C(=O)Nc3nn[nH]n3)cc2)c2ccc(C3CCCCC3)cc2)ccc1OC(F)(F)F` [Example 314, 4-[1-(4-Cyclohexylphenyl)-3-(3-methylsulfonyl-4-trifluoromethoxyphenyl)ureidomethyl]-N-(2H-tetrazol-5-yl)benzamide], `CC(O)c1cccc(NC(=O)N(Cc2ccc(C(=O)Nc3nn[nH]n3)cc2)c2ccc(C3CCCCC3)cc2)c1` (centres unmarked) [Example 306, 4-{1-(4-Cyclohexylphenyl)-3-[3-(1-hydroxyethyl)phenyl]ureidomethyl}-N-(2H-tetrazol-5-yl)benzamide] is 3.4-fold higher in IC50: 62 nM for the first, 209 nM for the second.

Compared with `CCOC(=O)c1ccc2nc(NC(=O)N(Cc3ccc(C(=O)NCCC(=O)O)cc3)[C@H]3CC[C@H](C(C)(C)C)CC3)sc2c1` [Example 254, 2-{3-(4-trans-tert-Butylcyclohexyl)-3-[4-(2-carboxyethylcarbamoyl)benzyl]ureido}benzothiazole-6-carboxylic acid ethyl ester], `CC(C)Oc1ccc(C(=O)N(Cc2ccc(C(=O)NCCC(=O)O)cc2)C2CCC(C(C)(C)C)CC2)cc1` (centres unmarked) [Example 526, 3-(4-{[(4-tert-Butylcyclohexyl)-(4-isopropoxybenzoyl)amino]methyl}benzoylamino)propionic acid] is 6.4-fold higher in IC50: 266 nM for the first, 1700 nM for the second. The first is the more potent here.

Compared with `O=C(Nc1nn[nH]n1)c1ccc(CN(C(=O)Nc2ccc(Cl)c(Cl)c2)c2ccc(C3=CCCCC3)cc2)cc1` [Example 325, 4-[1-(4-Cyclohex-1-enylphenyl)-3-(3,4-dichlorophenyl)ureidomethyl]-N-(2H-tetrazol-5-yl)benzamide], `CC(C)(C)c1ccc(N(Cc2ccc(C(=O)Nc3nn[nH]n3)cc2)C(=O)Nc2cccc(Cl)c2)cc1` [Example 296, 4-[1-(4-tert-Butylphenyl)-3-(3-chlorophenyl)ureidomethyl]-N-(2H-tetrazol-5-yl)benzamide] is 12-fold higher in IC50: 25 nM for the first, 304 nM for the second.

Going from `CCC(C)c1ccc(N(Cc2ccc(C(=O)Nc3nn[nH]n3)cc2)C(=O)Nc2cccc(S(C)(=O)=O)c2)cc1` (centres unmarked) [Example 446, 4-[1-(4-sec-Butylphenyl)-3-(3-methylsulfonylphenyl)ureidomethyl]-N-(2H-tetrazol-5-yl)benzamide] to `CCCCN1C(=O)c2ccc(NC(=O)N(Cc3ccc(C(=O)Nc4nn[nH]n4)cc3)c3ccc(C4CCCCC4)cc3)cc2C1=O` [Example 636, 4-[3-(N′-Butylphthalimid-4-yl)-1-(4-cyclohexylphenyl)ureidomethyl]-N-(2H-tetrazol-5-yl)benzamide], the IC50 falls from 522 nM to 5 nM (100-fold).

Going from `CC(C)(C)C1CCC(N(Cc2ccc(C(=O)Nc3nn[nH]n3)cc2)C(=O)CSCc2ccccc2)CC1` (centres unmarked) [Example 537, 4-{[(2-Benzylsulfanylacetyl)-(4-tert-butylcyclohexyl)amino]methyl}-N-(2H-tetrazol-5-yl)benzamide] to `CC(C)(C)[C@H]1CC[C@@H](N(Cc2ccc(C(=O)Nc3nn[nH]n3)cc2)C(=O)Nc2cc(C(F)(F)F)cc(C(F)(F)F)c2)CC1` [Example 603, 4-[3-(3,5-Bis(trifluoromethyl)phenyl)-1-(cis-4-tert-butylcyclohexyl)ureidomethyl]-N-(2H-tetrazol-5-yl)benzamide], the IC50 falls from 280 nM to 26 nM (11-fold). The second is the more potent here.

With `CC(C)(C)C1CCC(N(Cc2ccc(C(=O)NCCC(=O)O)cc2)NC(=O)c2cc(C(F)(F)F)cc(C(F)(F)F)c2)CC1` (centres unmarked) [Example 428, 3-{4-[N′-(3,5-Bis(trifluoromethyl)benzoyl)-N-(4-tert-butylcyclohexyl)hydrazinomethyl]benzoylamino}propionic acid] the IC50 was 410 nM.

Same assay, conditions: Glu Bd Assay (III) IC50 (nM), BHK cell membranes, WGA SPA beads, 125I-glucagon

`CC(C)(C)[C@H]1CC[C@H](N(Cc2ccc(C(=O)NCCC(=O)O)cc2)C(=O)Nc2cc(C(F)(F)F)cc(C(F)(F)F)c2)CC1` [Example 237, 3-{4-[3-(3,5-Bis-trifluoromethylphenyl)-1-(trans-4-tert-butylcyclohexyl)ureidomethyl]benzoylamino}propionic acid] gave an IC50 of 56 nM.
